From patent US9233978B2, “6-fused heteroaryldihydropyrimidines for the treatment and prophylaxis of hepatitis B virus infection” (Hoffmann-La Roche Inc., priority 2014, dated 2016)
In brackets after ≈: the same amount, converted by molar mass.

Assays:
[1] = Human microsomal metabolic stability; assay type: in vitro ADME; conditions: human microsomes 0.5 mg/mL, 1 μM test compound, NADPH, 37° C., pH 7.4, 0-30 minutes
Description: Human Microsomes (BD Gentest) were preincubated with test compound for 10 minutes at 37° C. in 100 mM phosphate buffer, pH 7.4. The reactions were initiated by adding NADPH or NADPH regenerating system to give a final incubation volume of 400 μL. For NADPH system, the final incubations contained 1 μM test compound, 0.5 mg/mL liver microsomal protein, 1 mM NADPH in 100 mM phosphate buffer, pH 7.4. For the NADPH regenerating system, the final incubations contained 1 μM test compound, 0.5 mg/mL liver microsomal protein, 3 mM glucose 6-phosphate, 1 mM NADP, 3 mM MgCl2 and 0.05 mg/mL glucose 6-phosphate dehydrogenase in 100 mM phosphate buffer, pH 7.4. After incubation times of 0, 3, 6, 9, 15 and 30 minutes at 37° C., 1 sample was obtained from each time point and 50 μL of each sample was removed and transferred to 150 μL of methanol solution which was maintained at 4° C. and contained 2 μM tolbutamide as internal standard. Following precipitation and centrifugation, the amount of compound remaining in the samples were determined by LC-MS/MS. Controls of no NADPH or no NADPH regenerating system at zero and 30 minutes were also prepared and analyzed.

[2] = Lysa solubility; assay type: physicochemical; conditions: phosphate buffer, pH 6.5, aqueous buffer, thermodynamic from solid, 0.05 M phosphate buffer (pH 6.5)
Description: Samples were prepared in duplicate from 10 mM DMSO stock solutions. After evaporation of DMSO with a centrifugal vacuum evaporator, the residue was solved in 0.05 M phosphate buffer (pH 6.5), stirred for one hour and shook for two hours. After one night, the solution was filtered using a microtiter filter plate. Then the filtrate and its 1/10 dilution were analyzed by direct UV measurement or by HPLC-UV. […] The results were in μg/mL. In case the percentage of sample measured in solution after evaporation divided by the calculated maximum of sample amount was over 80%, the solubility was reported as higher than this value.

[3] = tested on: HBV; assay: Anti-HBV activity in vitro, HepG2.2.15 cells, extracellular HBV DNA by qPCR; assay type: cell-based; conditions: Hepatitis B virus, HepG2.2.15, 120 h, HepG2.2.15 cells; HBV replication inhibited by 50%, extracellular HBV DNA by qPCR; five days after compound treatment; read-out: EC50
Outline: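 Extracellular HBV DNA in culture supernatant was measured by qPCR after nucleic acid extraction. The supernatant came from constitutively replicating HepG2.2.15 cells exposed for five days to half-log-diluted compounds, with DMSO at 0.5% final. Cells had been plated overnight at 37 °C beforehand.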

SMILES | Human Microsomal Clearance [1] | solubility thermodynamic [2] | EC50 [3]
CCOC(=O)C1=C(CN2CCN3C(=O)N(C(C)(C)C(=O)O)C[C@@H]3C2)NC(c2nccs2)=N[C@H]1c1cccc(F)c1Cl [Example 32, (R)-6-[(S)-2-(1-Carboxy-1-methyl-ethyl)-3-oxo-hexahydro-imidazo[1,5-a]pyrazin-7-ylmethyl]-4-(2-chloro-3-fluoro-phenyl)-2-thiazol-2-yl-1,4-dihydro-pyrimidine-5-carboxylic acid ethyl ester] | 1.6 mL/min/kg | > 701 µg/mL | 199 nM
COC(=O)C1=C(CN2CCN3C(=O)N(C(C)(C)CC(=O)O)C[C@@H]3C2)NC(c2nccs2)=N[C@H]1c1ccc(F)cc1Cl [Example 33, 3-[(8aS)-7-[[(4R)-4-(2-chloro-4-fluoro-phenyl)-5-methoxycarbonyl-2-thiazol-2-yl-1,4-dihydropyrimidin-6-yl]methyl]-3-oxo-5,6,8,8a-tetrahydro-1H-imidazo[1,5-a]pyrazin-2-yl]-3-methyl-butanoic acid] | 2.5 mL/min/kg | > 748 µg/mL | 30 nM
COC(=O)C1=C(CN2CCN3C(=O)N(C(C)(C)CC(=O)O)C[C@@H]3C2)NC(c2nccs2)=N[C@H]1c1ccc(F)c(F)c1C [Example 37, 3-[(8aS)-7-[[(4S)-4-(3,4-difluoro-2-methyl-phenyl)-5-methoxycarbonyl-2-thiazol-2-yl-1,4-dihydropyrimidin-6-yl]methyl]-3-oxo-5,6,8,8a-tetrahydro-1H-imidazo[1,5-a]pyrazin-2-yl]-3-methyl-butanoic acid] | 2.5 mL/min/kg | 422 µg/mL (≈ 700 µM) | 17 nM
COC(=O)C1=C(CN2CCN3C(=O)N([C@H]4C[C@H](C(=O)O)C4)C[C@@H]3C2)NC(c2nccs2)=N[C@H]1c1ccc(F)cc1Cl [Example 39, 3-[(2S,8aR)-7-[[(4R)-4-(2-chloro-4-fluoro-phenyl)-5-methoxycarbonyl-2-thiazol-2-yl-1,4-dihydropyrimidin-6-yl]methyl]-3-oxo-5,6,8,8a-tetrahydro-1H-imidazo[1,5-a]pyrazin-2-yl]cyclobutanecarboxylic acid] | 0.4 mL/min/kg | > 770 µg/mL | 30 nM
COC(=O)C1=C(CN2CCN3C(=O)N([C@H]4CCC[C@H]4C(=O)O)C[C@@H]3C2)NC(c2nccs2)=N[C@H]1c1ccc(F)cc1Cl [Example 51, (1R,2S)-2-[(8aS)-7-[[(4R)-4-(2-chloro-4-fluoro-phenyl)-5-methoxycarbonyl-2-thiazol-2-yl-1,4-dihydropyrimidin-6-yl]methyl]-3-oxo-5,6,8,8a-tetrahydro-1H-imidazo[1,5-a]pyrazin-2-yl]cyclopentanecarboxylic acid] | 2.0 mL/min/kg | 589 µg/mL (≈ 954 µM) | 31 nM
CCOC(=O)C1=C(CN2CCN3C(=O)N(CCCC(=O)O)C[C@@H]3C2)NC(c2nccs2)=N[C@H]1c1cccc(F)c1Cl [Example 53, 4-[(8aS)-7-[[(4R)-4-(2-chloro-3-fluoro-phenyl)-5-ethoxycarbonyl-2-thiazol-2-yl-1,4-dihydropyrimidin-6-yl]methyl]-3-oxo-5,6,8,8a-tetrahydro-1H-imidazo[1,5-a]pyrazin-2-yl]butanoic acid] | 5.1 mL/min/kg | > 723 µg/mL | 19 nM
CCOC(=O)C1=C(CN2CCN3C(=O)N(CCOCC(=O)O)CC3C2)NC(c2nccs2)=N[C@H]1c1cccc(F)c1Cl (stereo partly drawn) [Example 67, 2-[2-[7-[[(4R)-4-(2-chloro-3-fluoro-phenyl)-5-ethoxycarbonyl-2-thiazol-2-yl-1,4-dihydropyrimidin-6-yl]methyl]-3-oxo-5,6,8,8a-tetrahydro-1H-imidazo[1,5-a]pyrazin-2-yl]ethoxy]acetic acid] | 4.7 mL/min/kg | > 794 µg/mL | 438 nM
CCOC(=O)C1=C(CN2CCN3C(=O)N(CCCOCC(=O)O)CC3C2)NC(c2nccs2)=N[C@H]1c1cccc(F)c1Cl (stereo partly drawn) [Example 68, 2-[3-[7-[[(4R)-4-(2-chloro-3-fluoro-phenyl)-5-ethoxycarbonyl-2-thiazol-2-yl-1,4-dihydropyrimidin-6-yl]methyl]-3-oxo-5,6,8,8a-tetrahydro-1H-imidazo[1,5-a]pyrazin-2-yl]propoxy]acetic acid] | 4.5 mL/min/kg | > 794 µg/mL | 143 nM
COC(=O)C1=C(CN2CCN3C(=O)N(C4CCC(C(=O)O)CC4)C[C@@H]3C2)NC(c2nccs2)=N[C@H]1c1ccc(F)cc1Cl (stereo partly drawn) [Example 72, 4-[(8aS)-7-[[(4R)-4-(2-chloro-4-fluoro-phenyl)-5-methoxycarbonyl-2-thiazol-2-yl-1,4-dihydropyrimidin-6-yl]methyl]-3-oxo-5,6,8,8a-tetrahydro-1H-imidazo[1,5-a]pyrazin-2-yl]cyclohexanecarboxylic acid] | 5.2 mL/min/kg | 551 µg/mL (≈ 873 µM) | 9 nM
COC(=O)C1=C(CN2CCN3C(=O)N(CC(C)(C)C(=O)O)C[C@@H]3C2)NC(c2nccs2)=N[C@H]1c1ccccc1Cl [Example 74, 3-[(8aS)-7-[[(4R)-4-(2-chlorophenyl)-5-methoxycarbonyl-2-thiazol-2-yl-1,4-dihydropyrimidin-6-yl]methyl]-3-oxo-5,6,8,8a-tetrahydro-1H-imidazo[1,5-a]pyrazin-2-yl]-2,2-dimethyl-propanoic acid] | 1.0 mL/min/kg | > 716 µg/mL | 36 nM
CCOC(=O)C1=C(CN2CCN3C(=O)N(CC(OC)C(=O)O)C[C@@H]3C2)NC(c2nccs2)=N[C@H]1c1cccc(F)c1Cl (stereo partly drawn) [Example 78, 3-[(8aS)-7-[[(4R)-4-(2-chloro-3-fluoro-phenyl)-5-ethoxycarbonyl-2-thiazol-2-yl-1,4-dihydropyrimidin-6-yl]methyl]-3-oxo-5,6,8,8a-tetrahydro-1H-imidazo[1,5-a]pyrazin-2-yl]-2-methoxy-propanoic acid] | 6.7 mL/min/kg | > 793 µg/mL | 387 nM
COC(=O)C1=C(CN2CCN3C(=O)N(CCCCC(=O)O)C[C@@H]3C2)NC(c2nccs2)=N[C@H]1c1ccc(F)cc1Cl [Example 80, 5-[(8aS)-7-[[(4R)-4-(2-chloro-4-fluoro-phenyl)-5-methoxycarbonyl-2-thiazol-2-yl-1,4-dihydropyrimidin-6-yl]methyl]-3-oxo-5,6,8,8a-tetrahydro-1H-imidazo[1,5-a]pyrazin-2-yl]pentanoic acid] | 8.3 mL/min/kg | > 616 µg/mL | 32 nM
